How the values were obtained:
[1] = parameters: method as in ref 13, 21, 22 = [13]; 13. Boehringer Ingelheim (2017) OFEV® (nintedanib) capsules, for oral use; Prescribing information, revised: 08/2017. http://docs.boehringer-ingelheim.com/Prescribing%20Information/PIs/Ofev/ofev.pdf . || [21]; 21. Boehringer Ingelheim (2013) Relative bioavailability of nintedanib given alone and in combination with ketoconazole at steady state in healthy male volunteers (an open-label, randomised, two-way c || [22]; 22. Boehringer Ingelheim (2013) Relative bioavailability of a single oral dose of nintedanib given alone and in combination with multiple oral doses of rifampicin in healthy male volunteers (an open-l); details: cited from earlier work
[2] = Phase I trial; cited from earlier work
[3] = parameters: method as in PMID 21204634; details: cited from earlier work
clinical = details: human, in vivo
Procedure: An overview of these studies is provided in Online Resource Table S1. […] Treatment continued until disease progression or intolerable toxicity. […] Treatment cycles were continued until disease progression or intolerable toxicity. […] In all four trials, dose reductions and interruptions were allowed to manage adverse events. All studies were conducted in accordance with the Declaration of Helsinki and with approval of the local ethics committees. Written informed consent was obtained from all patients before study entry. Blood sampling schema for measurement of nintedanib plasma concentrations varied. For all trials, at least two pre-dose and two post-dose blood samples were scheduled during treatment (see Online Resource Table S1). In addition, more extensive sampling was performed in the two Phase II trials. Nintedanib and BIBF 1202 plasma concentrations were analyzed by validated liquid chromatography-mass spectrometry (HPLC-MS/MS) methods. […] The population pharmacokinetic analysis was performed using non-linear mixed-effects modeling techniques (NONMEM, version VI 2.0, ICON Development Solutions, Ellicott City, Maryland, USA). The first-order conditional estimation algorithm with interaction was used. Data processing, diagnostic plots, and calculation of descriptive statistics were performed using R version 2.12.1 (http://www.rproject.org) and SAS version 9.2 (SAS Institute Inc, Cary, NC, USA). Bootstrap analysis was performed using Perl-speaks-NONMEM, version 3.5.3 [24, 25]. A sequential approach was used for population pharmacokinetic model development. […] Inter-individual variability (IIV, η) and inter-occasion variability (IOV, κ) were modeled using exponential random effect models. For testing IOV, each visit was defined as one occasion. […] Model selection was guided by change in objective function values (OFV), identifiability of parameters and precision of parameter estimates, correlation between the estimates of fixed-effect parameters, numerical stability, ability to obtain a successful COVARIANCE step, and visual inspection of basic goodness-of-fit plots. The effects of intrinsic patient factors (e.g., gender, age, body weight, ethnicity, laboratory values, and NSCLC histology) and extrinsic factors (e.g., smoking history and alcohol consumption) on pharmacokinetic parameters of nintedanib were evaluated by applying a stepwise forward inclusion/backward elimination approach. Combinations of covariates and model parameters to be tested were pre-specified based on prior knowledge, physiological plausibility, or general clinical interest (see Online Resource Table S2). Potential effects of patient population (NSCLC versus IPF) or treatment regimen (monotherapy versus combination therapy with docetaxel or pemetrexed) could not be distinguished from trials effects, and were, therefore, not re-evaluated during covariate analysis. To assess the effect of hepatic impairment on apparent total plasma clearance (CL/F) and relative bioavailability (F1), alanine transaminase (ALT), aspartate transaminase (AST), and total bilirubin (BIL) were tested individually and in combination using an adapted liver dysfunction group (LDF) composite developed for organ dysfunction studies by the Organ Dysfunction Working Group of the National Cancer Institute. In this classification, hepatic dysfunction is classified as mild (subdivided into two subgroups), moderate, or severe according to ALT, AST, and BIL levels relative to the upper limit of normal (ULN) (see Table 1). This categorization was preferred over the classical Child-Pugh classification (based on assessments of BIL, albumin, prothrombin time, encephalopathy, and ascites) commonly used to assess surgical risk in cirrhotic patients, as it has potential disadvantages for use in oncology patients. Creatinine clearance (CLCR) estimated by the Cockcroft-Gault equation [31] was used as surrogate for renal function. […]

[4] = parameters: method as in PMID 20460487, PMID 25299232; details: cited from earlier work
P-glycoprotein (P-gp) = system: P-glycoprotein (P-gp); parameters: method as in ref 13, 21, 22 = [13]; 13. Boehringer Ingelheim (2017) OFEV® (nintedanib) capsules, for oral use; Prescribing information, revised: 08/2017. http://docs.boehringer-ingelheim.com/Prescribing%20Information/PIs/Ofev/ofev.pdf . || [21]; 21. Boehringer Ingelheim (2013) Relative bioavailability of nintedanib given alone and in combination with ketoconazole at steady state in healthy male volunteers (an open-label, randomised, two-way c || [22]; 22. Boehringer Ingelheim (2013) Relative bioavailability of a single oral dose of nintedanib given alone and in combination with multiple oral doses of rifampicin in healthy male volunteers (an open-l); details: cited from earlier work
[5] = system: idiopathic pulmonary fibrosis (IPF); parameters: method as in PMID 21992121, PMID 24836310; details: patients with IPF, 52-week treatment period; cited from earlier work
[6] = parameters: method as in ref 34 = [34]; 34. Boehringer Ingelheim (2015) Pharmacokinetics, safety and tolerability of nintedanib single oral dose in male and female patients with different degrees of hepatic impairment (Child-Pugh classifica); details: Child–Pugh classification, subjects with liver cirrhosis; cited from earlier work

## COC(=O)c1ccc2c(c1)NC(=O)/C2=C(\Nc1ccc(N(C)C(=O)CN2CCN(C)CC2)cc1)c1ccccc1 [nintedanib]
[1]; 400 mg ketoconazole (potent P-gp inhibitor)
  increase of nintedanib exposure on co-administration with ketoconazole: 60%
[1]; 600 mg rifampicin (potent P-gp inducer)
  decrease of nintedanib exposure on co-administration with rifampicin: 50%
[2]
  increase of exposure (AUC0−∞) by food: 20%
  increase of maximum plasma concentrations (Cmax) by food: 20%
[3]
  eliminated in urine: Less than 1%
  excreted in the feces: about 94 % of the dose
clinical
  ALAG: 0.470 (–) h
  CL/F (θCL): 875 (–) L/h
  F1 higher in NSCLC phase II and LUME-Lung 2 trials than in LUME-Lung 1 and IPF phase II trials: 30%
  V2/F (θV2): 617 (–) L
  V2 when applying non-flip-flop kinetics in the final model: 10,700 L
  Vd/F: 465 L
  absorption-rate constant, Phase II trials versus Phase III trials: 2 fold
  change in exposure by any individual covariate at extreme values relative to a typical patient: ≤ 33%
  covariate effect on F1, θAge: 0.00942 (–)
  difference in nintedanib pharmacokinetics for Black patients, alcohol consumption or UGT1A1 polymorphism status: no substantial difference
  dose linearity: No major deviation from dose linearity
  impact of gender, patient population, NSCLC histology, therapy regimen, ECOG status, liver metastases, mild or moderate renal impairment, LDH on nintedanib pharmacokinetics: no statistically significant impact
  increase of F1, mild 1 liver dysfunction category: 8%
  increase of F1, mild 2 liver dysfunction category: 13%
  ka (θka): 0.0391 (–) h^-1
  ka (θka), first-order absorption-rate constant: 0.0376 (7.77) h^−1
  ka higher in phase II NSCLC and IPF trials than in the two NSCLC Phase III trials: 120%
  ka when applying non-flip-flop kinetics in the final model: 1.64 h⁻¹
  ka, absorption rate of a typical patient: 0.0827 h⁻¹
  lag time: 25 min
  percentage change in AUCτ,ss: Chinese/Taiwanese/Indian: ↑33%
  percentage change in AUCτ,ss: Korean: ↓22%
  percentage change in AUCτ,ss: age 45 years (5th percentile): ↓16%
  percentage change in AUCτ,ss: age 76 years (95th percentile): ↑13%
  percentage change in AUCτ,ss: body weight 50 kg (5th percentile): ↑25%
  percentage change in AUCτ,ss: body weight 100 kg (95th percentile): ↓19%
  percentage change in AUCτ,ss: current smoker: Current smoker: ↓21%
  ratios of AUCτ,ss for each factor other than ethnic origin: 80–125%
clinical; absorption half-life
  half-life: 8.38 h
clinical; elimination half-life (population mean)
  half-life: 0.36 h
[4]
  pharmacokinetic interaction between nintedanib and either docetaxel or pemetrexed: no significant pharmacokinetic interaction
P-glycoprotein (P-gp)
  substrate of P-glycoprotein (P-gp): substrate
[5]
  rate of decline in forced vital capacity: significant reduction
[6]
  increase in nintedanib exposure, mild hepatic impairment: ~2 fold
  increase in nintedanib exposure, moderate hepatic impairment: ~8 fold

Source: PMC5754397, “Population pharmacokinetics of nintedanib, an inhibitor of tyrosine kinases, in patients with non-small cell lung cancer or idiopathic pulmonary fibrosis” (Cancer Chemotherapy and Pharmacology, 2017)
